For one data set, the target named is T1, human M1 receptor (Homo sapiens, UniProt P11229).
T1 construct: expressed in transfected cells; host or cells: CHO-K1
T1 sequence (P11229 1-460): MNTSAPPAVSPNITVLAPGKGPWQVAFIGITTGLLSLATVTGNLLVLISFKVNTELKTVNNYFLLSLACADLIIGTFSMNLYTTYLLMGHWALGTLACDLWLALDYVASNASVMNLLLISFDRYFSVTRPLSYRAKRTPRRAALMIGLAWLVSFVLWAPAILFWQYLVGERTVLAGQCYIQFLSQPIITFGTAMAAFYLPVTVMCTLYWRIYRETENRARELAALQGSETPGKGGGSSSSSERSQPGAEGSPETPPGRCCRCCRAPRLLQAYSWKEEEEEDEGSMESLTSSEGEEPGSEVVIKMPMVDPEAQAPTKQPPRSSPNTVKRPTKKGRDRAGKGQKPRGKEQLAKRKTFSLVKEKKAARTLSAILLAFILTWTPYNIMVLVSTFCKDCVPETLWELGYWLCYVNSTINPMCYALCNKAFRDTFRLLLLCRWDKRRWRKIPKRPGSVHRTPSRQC
As to the kind of experiment: Measurement of M1 receptor positive allosteric modulator (M1PAM) activity. The class given is cell-based. Particulars: PAM activity in presence of acetylcholine at EC20 concentration; CHO-K1 cells stably expressing human M1 receptor; IP1 time-resolved fluorescence. As for the experimental part: Measurement of M1 Receptor Positive Allosteric Modulator (M1PAM) Activity
The activity of a test compound in the presence of acetylcholine at an EC20 concentration affording about 20% action of the maximum activity was measured as PAM activity. The method therefor is as follows. To a 384-well white plate (Greiner™) was added 4 μL of the test compound diluted with IP1 Stimulation buffer (CisBio™) containing 0.1% fatty acid-free BSA containing 80 nM acetylcholine. Freeze stock of CHO-K1 cells stably expressing human M1 receptor (hCHRMl) was prepared with IP1 Stimulation buffer (CisBio™) containing 0.1% fatty acid-free BSA, 4 μL thereof was added (10,000 cells/well) and the mixture was cultured in a 5% CO2 incubator at 37° C. for 1 hr. 4 μL of a solution (CisBio™) containing IP1-d2 and Anti-IP1-cryptate Tb conjugate was added the mixture was incubated at room temperature for 1 hr, and the time-resolved fluorescence signal was measured on an Envision plate reader (Perkin Elmer™). The activity (%) of the test compound was calculated by defining the value when acetylcholine was added at the final concentration of 20 μM as 100% and the value when DMSO was added instead of the test compound under acetylcholine-free conditions as 0%, and the EC50 value was calculated as a value of 50% of the concentration dependence curve of the test compound.

Another data set is described as follows: Rat PK test. Conditions: plasma, male SD rats, cassette dosing; for clearance / MRT: intravenous 0.1 mg/kg; for clearance: read-out: CL total (total clearance) (converted); for MRT: read-out: MRT iv (mean residence time); for Tmax: oral 1 mg/kg, read-out: Tmax (time to reach maximum plasma concentration). The class given is in vivo. As for the experimental part: As the rat, 8-week-old male SD rats (Japan SLC, Inc.) were used. They were fed on a solid commercially available diet (CE-2, CLEA Japan, Inc.) and allowed to freely ingest tap water as the drinking water. An intravenous administration solution for the rats was prepared by weighing a test compound, dissolving same in dimethylacetamide (DMA) (Wako Pure Chemical Industries, Ltd.), adding the same volume of 1,3-butanediol (Wako Pure Chemical Industries, Ltd.) and mixing by stirring to give a DMA:1,3-butanediol (1:1, v/v) solution. An oral administration solution was prepared by weighing a test compound, pulverizing same in an agate mortar, and gradually adding 0.5 w/v % aqueous methylcellulose solution to give a suspension. For intravenous administration, the solution was administered into femoral vein of the rats at 0.1 mg/0.5 mL/kg (salt converted to free form). For oral administration, the suspension was administered to the rats at 1 mg/5 mL/kg (salt converted to free form). The cassette dosing method was used for the both administration routes, and the test compound was administered in the following manner. • Compound of Example 5 (intravenous: 9 compounds cassette administration, oral: 4 compounds cassette administration) • Compound of Example 6 (intravenous: 5 compounds cassette administration, oral: 3 compounds cassette administration) • Compound of Example 13 (intravenous: 10 compounds cassette administration, oral: 5 compounds cassette administration) • Compound of Example 14 (intravenous: 7 compounds cassette administration, oral: 3 compounds cassette administration) • Compound of Example 31 (intravenous: 9 compounds cassette administration, oral: 5 compounds cassette administration) • Compound of Example 60 (intravenous: 7 compounds cassette administration, oral: 2 compounds cassette administration)
In the case of intravenous administration, blood samples were collected from the tail vein at 5, 10, 15, 30 min, 1, 2, 4, 8 hr after administration, an anticoagulation treatment with heparin sodium (Shimizu Pharmaceutical Co., Ltd.) was performed, and plasma was collected after centrifugation and subjected to the measurement of drug concentration. In the case of oral administration, blood samples were collected from the tail vein at 15, 30 min, 1, 2, 4, 8 hr after administration, an anticoagulation treatment with heparin sodium was performed, and plasma was collected after centrifugation and subjected to the measurement of drug concentration.
All drug concentrations were measured by LC-MS/MS analysis. For a pharmacokinetics test, the plasma (50 μL) was placed in a tube, acetonitrile (150 μL) containing internal standard solution was added and they were mixed on a vortex mixer. Thereafter, the mixture was centrifuged (5000 rpm, 5 min, 4° C.). The supernatant (60 μL) after centrifugation was added to 10 mmol/L ammonium formate (160 μL) added earlier and mixed therewith. This sample was injected to LC/MS/MS. The HPLC system used was Shimadzu™ LC-20A (Shimadzu Corporation), the column used was Unison UK-C18 HT (3.0 μm, 2.0×20 mm, Imtakt) at 50° C., and 10 mmol/L ammonium formate, 0.2% formic acid as mobile phase A and acetonitrile, 0.2% formic acid as mobile phase B were fed each at a flow rate of 1.2 mL/min under gradient conditions of (B concentration: 0 min→0.1 min, 5%, 0.1→0.75 min, 5-99%, 0.75→1.15 min, 99%, 1.15→1.16 min, 5%, 1.16→1.5 min, 5%). MS/MS used was AB Sciex™ TQ5500-MPX (Applied Biosystems™).
The results are shown in Table 4. • Tmax: time to reach maximum plasma concentration • MRT: mean residence time • iv: intravenous administration • CL total: total clearance

Structures are written as SMILES.

As a reminder, the EC50 is the concentration needed to bring the measured effect to its halfway point. As usually defined, the clearance is the rate of elimination divided by the concentration. One may read the MRT as a mean duration of stay, worked out from the concentration-time curve. In the case of `Cn1cnc(-c2ccc(Cc3cc(C(=O)N[C@H]4CCOC[C@@H]4O)c(F)c4c3OCC4)cc2)c1` [Example 5, 1,5-anhydro-2,3-dideoxy-3-(((4-fluoro-7-(4-(1-methyl-1H-imidazol-4-yl)benzyl)-2,3-dihydro-1-benzofuran-5-yl)carbonyl)amino)-L-threo-pentitol], the EC50 at human M1 receptor amounted to 3.7 nM. In addition, in “Rat PK test”, the clearance is 11.1 mL/min/kg, the MRT is 36 min and the Tmax is 30 min.
As for `Cn1cc(-c2ccc(Cc3cc(C(=O)N[C@H]4CCOC[C@@H]4O)c(F)c4c3OCC4)cn2)cn1` [Example 6, 1,5-anhydro-2,3-dideoxy-3-(((4-fluoro-7-((6-(1-methyl-1H-pyrazol-4-yl)pyridin-3-yl)methyl)-2,3-dihydro-1-benzofuran-5-yl)carbonyl)amino)-L-threo-pentitol], on human M1 receptor, the EC50 was determined as 2 nM. In the data set “Rat PK test”, the clearance was 6.5 mL/min/kg, the MRT was 84 min and the Tmax is 72 min.
With `COCCNC(=O)c1ccc(Cc2cc(C(=O)N[C@H]3CCOC[C@@H]3O)c(F)c3c2OCC3)cc1F` [Example 13, 1,5-anhydro-2,3-dideoxy-3-(((4-fluoro-7-(3-fluoro-4-((2-methoxyethyl)carbamoyl)benzyl)-2,3-dihydro-1-benzofuran-5-yl)carbonyl)amino)-L-threo-pentitol], the EC50 at human M1 receptor worked out at 4.2 nM. In the data set “Rat PK test”, the clearance was 13.7 mL/min/kg, the MRT is 72 min and the Tmax is 60 min.
`CCOCCNC(=O)c1ccc(Cc2cc(C(=O)N[C@H]3CCOC[C@@H]3O)c(F)c3c2OCC3)cc1F` [Example 14, 1,5-anhydro-2,3-dideoxy-3-(((7-(4-((2-ethoxyethyl)carbamoyl)-3-fluorobenzyl)-4-fluoro-2,3-dihydro-1-benzofuran-5-yl)carbonyl)amino)-L-threo-pentitol]: on human M1 receptor, the EC50 was found to be 20 nM. For the same compound, in “Rat PK test”, the clearance was 22.9 mL/min/kg, the MRT is 36 min and the Tmax amounted to 42 min.
For the compound `CNC(=O)c1ccc(Cc2cc(C(=O)N[C@H]3CCOC[C@@H]3O)c(OC)c3c2OCC3)cc1F` [Example 31, 1,5-anhydro-2,3-dideoxy-3-(((7-(3-fluoro-4-(methylcarbamoyl)benzyl)-4-methoxy-2,3-dihydro-1-benzofuran-5-yl)carbonyl)amino)-L-threo-pentitol], on human M1 receptor, the EC50 is 18 nM. Also, in “Rat PK test”, the clearance was 9.05 mL/min/kg, the MRT was found to be 54 min and the Tmax came to 42 min.
On to `COCCCNC(=O)c1ccc(Cc2cc(C(=O)N[C@H]3CCOC[C@@H]3O)c(OC)c3c2CCC3)cc1F` [Example 60, 1,5-anhydro-2,3-dideoxy-3-(((7-(3-fluoro-4-((3-methoxypropyl)carbamoyl)benzyl)-4-methoxy-2,3-dihydro-1H-inden-5-yl)carbonyl)amino)-L-threo-pentitol], for which, at human M1 receptor, the EC50 turned out to be 17 nM. In “Rat PK test”, the clearance was 18.6 mL/min/kg, the MRT stood at 36 min and the Tmax was 48 min.
